Measured values as given in patent US20240316088A1, “Solid composition suitable as a nutritional composition or supplement for animals that suffer from brain related disorders, decline or diseases” (N.V. Nutricia, priority 2022, published 2024).

Experiment: Hygroscopicity as observed during formulation and processing
Assay type: physicochemical

SMILES	hygroscopicity (in words)
C[N+](C)(C)CCO.O=C([O-])C(O)C(O)C(=O)O (centres unmarked) [Choline bitartrate]	much reduced hygroscopicity
C[N+](C)(C)CCO.[Cl-] [Choline chloride]	very hygroscopic
